According to US20100305036A1, “COMBINATION OF PROTEIN TYROSINE PHOSPHATASE INHIBITORS AND HUMAN GROWTH HORMONE FOR THE TREATMENT OF MUSCLE ATROPHY AND RELATED DISORDERS” (priority 2007, published 2010):

What was measured:
[1] = tested on: C2C12 myotubes; assay: C2C12 myotube diameter; format: cell-based
Description: C2C12 cells can be obtained from the American Type Tissue Culture Bank and propagated in standard growth media containing 10% horse serum. When cells reached 70% confluency the media is changed to differentiation media containing 2% horse serum. Three days after start of differentiation multinucleated myotubes should be present, with visible striations, indicating differentiation. hGH can be used as a positive control for activating the IGF-1 receptor, or alternatively, combined with a PTP1B inhibitor to assess synergistic or additive effects. Consequently, PTP1B inhibitors and/or hGH can be added to the media for various times.
Myotube Diameter Myotube diameter can be assessed 24 hours after addition of PTP1B inhibitor and/or hGH to myotube media. Cells are washed in saline and fixed in gluteraldehyde. Images can be obtained on an inverted microscope using the green fluorescent channel to visualize the auto-fluorescence induced by the gluteraldehyde fixation. Images are printed out at standard magnification and the sixty largest myotubes measured at their largest diameter (as previously published). The fifty largest myotubes in each group can be statistically compared using the Kruskal-Wallis One Way Analysis on Ranks. Differences are considered significant if p<0.05 and designated by an asterisk in FIG. 1. […]

[2] = tested on: AKT phosphorylation; conditions: hGH treatment of C2C12; cited from earlier work

In the case of “IGF1: human insulin-like growth factor1 or IGF1, however formulated or stabilized”, the myotube hypertrophy ([1]; IGF1 alone added to C2C12 myotubes media at 10 ng/ml) is reported as “significantly hypertrophied”.

For “hGH: Human Growth Hormone, can be purchased from Bachem H-3148”, the C2C12 myotube diameter ([1]; hGH alone) is given as “significant increase” and the AKT phosphorylation [2] is given as “cause AKT phosphorylation”.
